Laboratory results: the NIST ThermoML archive (doi:10.1016/j.fluid.2015.07.036)

Details: for mass density: 100 kPa, Liquid, single sinker densimeter

CCCC[N+]1(C)CCCC1.N#CC(=C=[N-])C#N [1-butyl-1-methylpyrrolidinium tricyanomethanide]
Details	mass density [kg/m3]
263.25 K	1028.92
268.05 K	1026.15
274.1 K	1022.18
278.48 K	1019.29
283.44 K	1015.85
288.48 K	1012.68
292.96 K	1010.28
298.28 K	1006.87
303.21 K	1003.94
308.06 K	1000.78
313.19 K	997.8
317.91 K	995.05
323.17 K	991.69
328.28 K	988.81
333.1 K	985.27
337.77 K	982.59
343.16 K	979.77
347.27 K	977.15
353.46 K	973.98
358.07 K	970.73
364.38 K	967.59

surface tension liquid-gas [mN/m]
Details	Ring tensiometer	wilhelmy plate method
263.32 K	52.96	–
267.79 K	52.64	–
273.16 K	52.22	–
278.42 K	52.03	–
283.38 K	51.73	51.36
288.45 K	–	50.96
288.46 K	51.49	–
292.95 K	51.08	–
292.96 K	–	50.68
298.26 K	50.33	–
298.36 K	–	50.23
303.17 K	49.82	–
303.2 K	–	50.1
308.03 K	–	49.59
308.05 K	49.88	–
313.16 K	49.27	–
313.2 K	–	48.94
317.89 K	48.85	–
317.94 K	–	48.74
323.16 K	48.36	48.3
328.06 K	–	47.88
328.22 K	48.2	–
333.03 K	–	47.55
333.06 K	47.81	–
337.77 K	–	47.21
337.78 K	47.44	–
343.45 K	–	46.74
343.47 K	47.14	–
347.24 K	46.8	–
347.78 K	–	46.41
353.48 K	46.51	–
353.56 K	–	46.01
358.13 K	46.25	–
358.24 K	–	45.64
364.65 K	45.8	–
364.77 K	–	45.17

CCCC[n+]1ccc(C)cc1.N#CC(=C=[N-])C#N [1-butyl-4-methylpyridinium tricyanomethanide]
Details	mass density [kg/m3]
263.45 K	1059.1
267.95 K	1056.28
273.54 K	1052.57
278.65 K	1048.92
283.37 K	1045.67
288.63 K	1042.4
293.52 K	1038.75
298.25 K	1035.8
303.03 K	1032.82
308.01 K	1029.21
313.21 K	1025.76
318.36 K	1022.75
323.38 K	1019.48
327.88 K	1016.44
332.98 K	1013.51
337.59 K	1010.37
342.27 K	1007.38
348.16 K	1003.72
353.42 K	1000.42
358.02 K	997.29
363.31 K	993.79

surface tension liquid-gas [mN/m]
Details	Ring tensiometer	wilhelmy plate method
288.6 K	49.8	–
293.53 K	49.54	49.49
298.24 K	–	49.18
298.25 K	49.45	–
303.01 K	–	48.76
303.02 K	48.8	–
307.98 K	48.37	–
308.01 K	–	48.35
313.22 K	48.23	–
313.27 K	–	47.89
318.3 K	48.03	–
318.35 K	–	47.44
323.38 K	–	47.12
323.41 K	47.28	–
327.86 K	47.1	–
327.98 K	–	46.65
332.9 K	–	46.21
332.94 K	46.55	–
337.57 K	46.06	–
337.68 K	–	45.88
344.17 K	–	45.37
344.19 K	45.74	–
348.14 K	45.27	–
348.15 K	–	45.03
353.35 K	44.97	–
353.43 K	–	44.52
358.06 K	44.65	–
358.09 K	–	44.17
363.37 K	44.18	–
363.55 K	–	43.66

CCn1cc[n+](C)c1.N#C[C-](C#N)C#N [1-ethyl-3-methyl-1H-imidazolium tricyanomethanide]
Details	mass density [kg/m3]
262.68 K	1106.12
268.65 K	1101.93
273.46 K	1098.21
278.14 K	1095.15
283.27 K	1091.23
288.08 K	1088.11
293.16 K	1084.64
298.19 K	1081
303.27 K	1077.46
308.21 K	1073.93
313.21 K	1070.64
318.2 K	1067.14
323.32 K	1063.82
327.9 K	1060.39
333.05 K	1057.29
338.17 K	1053.46
342.95 K	1050.5
348.05 K	1047.15
352.71 K	1043.86
358.12 K	1040.23
364.84 K	1035.96

Details	surface tension liquid-gas [mN/m]
283.22 K, wilhelmy plate method	50.62
283.25 K, Ring tensiometer	50.71
288.01 K, wilhelmy plate method	50.33
288.03 K, Ring tensiometer	50.29
293.17 K, Ring tensiometer	49.61
293.19 K, wilhelmy plate method	49.74
298.13 K, Ring tensiometer	49.45
298.15 K, wilhelmy plate method	49.4
303.06 K, Ring tensiometer	48.87
303.07 K, wilhelmy plate method	48.89
308.18 K, Ring tensiometer	48.37
308.19 K, wilhelmy plate method	48.42
313.19 K, wilhelmy plate method	48.06
313.27 K, Ring tensiometer	47.99
318.16 K, wilhelmy plate method	47.48
318.18 K, Ring tensiometer	47.44
323.26 K, Ring tensiometer	46.86
323.3 K, wilhelmy plate method	47.14
327.9 K, wilhelmy plate method	46.7
328.44 K, Ring tensiometer	46.65
333.28 K, Ring tensiometer	46.24
333.4 K, wilhelmy plate method	46.16
338.24 K, wilhelmy plate method	45.83
338.25 K, Ring tensiometer	45.72
343.18 K, Ring tensiometer	45.39
343.21 K, wilhelmy plate method	45.31
347.97 K, Ring tensiometer	44.69
347.98 K, wilhelmy plate method	44.86
352.81 K, Ring tensiometer	44.55
352.89 K, wilhelmy plate method	44.44
358.17 K, Ring tensiometer	44.06
358.44 K, wilhelmy plate method	43.93
365.18 K, Ring tensiometer	43.3
365.23 K, wilhelmy plate method	43.29
